Assay results from ChEMBL document CHEMBL1138436, “Biological activity and chemistry of taxoids from the Japanese yew, Taxus cuspidata” (J Nat Prod, 2004).

Assay: Reversal of multidrug resistance in human 2780AD cells assessed as increase in vincristine accumulation relative to verapamil
Type: functional, A2780 ADR
Design: concentration or dose not given beside the values

| SMILES | Activity [%] |
| --- | --- |
| C=C1[C@@H](OC(=O)CCc2ccccc2)CC[C@@]2(C)[C@@H](OC(C)=O)[C@H](OC(C)=O)C3=C(C)C(=O)C[C@@H]([C@@H](OC(C)=O)[C@H]12)C3(C)C | 227 |
| CC(=O)O[C@@H]1[C@@H]2CC(=O)C(C)=C([C@@H](OC(C)=O)[C@H](OC(C)=O)[C@]3(C)CC[C@H](O)[C@]4(CO4)[C@@H]13)C2(C)C | 28 |
| CC[Si](CC)(CC)O[C@H]1CC[C@@]2(C)[C@@H](OC(C)=O)[C@H](OC(C)=O)C3=C(C)C(=O)C[C@@H]([C@@H](OC(C)=O)[C@@H]2[C@@]12CO2)C3(C)C | 101 |
| C=C1[C@@H](OCOCc2ccccc2)CC[C@@]2(C)[C@@H](OC(C)=O)[C@H](OC(C)=O)C3=C(C)C(=O)C[C@@H]([C@@H](OC(C)=O)[C@H]12)C3(C)C | 150 |
| C=C1[C@@H](O)CC[C@@]2(C)[C@@H](OC(C)=O)[C@H](OC(C)=O)C3=C(C)[C@@H](O)C[C@@H]([C@@H](OC(C)=O)[C@H]12)C3(C)C | 28 |
| C=C1[C@@H](OC(=O)/C=C/c2ccccc2)CC[C@@]2(C)[C@@H](OC(=O)/C=C/c3ccccc3)[C@H](OC(=O)/C=C/c3ccccc3)C3=C(C)C(=O)C[C@@H]([C@@H](OC(C)=O)[C@H]12)C3(C)C | 28 |
| C=C1[C@@H](OC(=O)/C=C/c2ccccc2)CC[C@@]2(C)[C@@H](OC(=O)c3ccccc3)[C@H](OC(=O)c3ccccc3)C3=C(C)C(=O)C[C@@H]([C@@H](OC(C)=O)[C@H]12)C3(C)C | 28 |
| C=C1[C@@H](O)CC[C@@]2(C)[C@@H](OC(C)=O)[C@H](OC(C)=O)C3=C(C)[C@@H](OC(=O)c4ccccc4)C[C@@H]([C@@H](OC(C)=O)[C@H]12)C3(C)C | 87 |
| C=C1[C@@H](O)CC[C@@]2(C)[C@@H](OC(C)=O)[C@H](OC(C)=O)C3=C(C)[C@@H](OC(=O)/C=C/c4ccccc4)C[C@@H]([C@@H](OC(C)=O)[C@H]12)C3(C)C | 95 |
| C=C1[C@@H](OC(=O)c2ccccc2)CC[C@@]2(C)[C@@H](OC(C)=O)[C@H](OC(C)=O)C3=C(C)[C@@H](O)C[C@@H]([C@@H](OC(C)=O)[C@H]12)C3(C)C | 88 |
| C=C1[C@@H](O)CC[C@@]2(C)[C@@H](OC(C)=O)[C@H](OC(C)=O)C3=C(C)C(=O)C[C@@H]([C@@H](OC(=O)/C=C/c4ccccc4)[C@H]12)C3(C)C | 98 |
| C=C1[C@@H](O[Si](CC)(CC)CC)CC[C@@]2(C)[C@@H](OC(C)=O)[C@H](OC(C)=O)C3=C(C)C(=O)C[C@@H]([C@@H](OC(C)=O)[C@H]12)C3(C)C | 91 |
| C=C1[C@@H](OC(=O)c2ccccc2)CC[C@@]2(C)[C@@H](OC(C)=O)[C@H](OC(C)=O)C3=C(C)C(=O)C[C@@H]([C@@H](OC(C)=O)[C@H]12)C3(C)C | 87 |
| C=C1[C@@H](OC(=O)c2ccccc2)CC[C@@]2(C)[C@@H](OC(=O)c3ccccc3)[C@H](OC(=O)c3ccccc3)C3=C(C)C(=O)C[C@@H]([C@@H](OC(C)=O)[C@H]12)C3(C)C | 28 |
| C=C1[C@@H](O)CC[C@@]2(C)[C@@H](OC(C)=O)[C@H](OC(C)=O)C3=C(C)[C@H](O)C[C@@H]([C@@H](OC(C)=O)[C@H]12)C3(C)C | 28 |
| CC[Si](CC)(CC)O[C@H]1CC[C@@]2(C)[C@@H](OC(C)=O)[C@H](OC(C)=O)C3=C(C)C(=O)C[C@@H]([C@@H](OC(C)=O)[C@@H]2[C@]12CO2)C3(C)C | 102 |

| SMILES | Activity [%] |
| --- | --- |
| CC(=O)O[C@@H]1[C@@H]2CC(=O)C(C)=C([C@@H](OC(C)=O)[C@H](OC(C)=O)[C@]3(C)CC[C@H](OC(=O)/C=C/c4ccccc4)[C@@]4(CO4)[C@@H]13)C2(C)C | 139 |
| C=C1[C@@H](OC(=O)/C=C/c2ccccc2)CC[C@@]2(C)[C@@H](OC(=O)/C=C/c3ccccc3)[C@H](OC(=O)/C=C/c3ccccc3)C3=C(C)C(=O)C[C@@H]([C@@H](OC(=O)/C=C/c4ccccc4)[C@H]12)C3(C)C | 28 |
| CC(=O)O[C@@H]1[C@@H]2CC(=O)C(C)=C([C@@H](OC(C)=O)[C@H](OC(C)=O)[C@]3(C)CC[C@H](O)[C@@]4(CO4)[C@@H]13)C2(C)C | 28 |
| C=C1[C@@H](OC(=O)C[C@H](c2ccccc2)N(C)C)C[C@H](OC(C)=O)[C@]2(C)[C@@H]1C[C@@H]1C[C@H](OC(C)=O)C(C)=C([C@@H](OC(C)=O)[C@@H]2OC(C)=O)C1(C)C | 114 |
| C=C1[C@@H](OC(=O)/C=C/c2ccccc2)CC[C@@]2(C)[C@@H](OC(C)=O)[C@H](OC(C)=O)C3=C(C)[C@@H](OC(=O)/C=C/c4ccccc4)C[C@@H]([C@@H](OC(C)=O)[C@H]12)C3(C)C | 28 |
| C=C1[C@@H](OC(=O)C[C@H](c2ccccc2)N(C)C)CC[C@]2(C)[C@@H]1C[C@@H]1C[C@H](OC(C)=O)C(C)=C([C@@H](OC(C)=O)[C@@H]2OC(C)=O)C1(C)C | 119 |
| C=C1[C@@H](OC(=O)c2ccccc2)CC[C@@]2(C)[C@@H](OC(C)=O)[C@H](OC(C)=O)[C@@]34[C@H](C)C(=O)C[C@@H]([C@@H](OC(C)=O)[C@@]132)C4(C)C | 125 |
| C=C1[C@@H](OC(=O)/C=C/c2ccccc2)CC[C@@]2(C)[C@H]3OC(C)(C)O[C@@H]3C3=C(C)C(=O)C[C@@H]([C@@H](OC(=O)c4ccccc4)[C@H]12)C3(C)C | 28 |
| C=C1[C@@H](OC(=O)/C=C/c2ccccc2)CC[C@@]2(C)[C@H]3OC(C)(C)O[C@@H]3C3=C(C)C(=O)C[C@@H]([C@@H](OC(=O)/C=C/c4ccccc4)[C@H]12)C3(C)C | 28 |
| C=C1[C@@H](OC(=O)/C=C/c2ccccc2)C[C@H](OC(C)=O)[C@]2(C)[C@@H]1C[C@@H]1C[C@H](OC(C)=O)C(C)=C([C@@H](OC(C)=O)[C@@H]2OC(C)=O)C1(C)C | 108 |
| C=C1[C@@H](OC(=O)/C=C/c2ccccc2)C[C@H](OC(C)=O)[C@]2(C)[C@@H]1C[C@@H]1C[C@H](O)C(C)=C([C@@H](OC(C)=O)[C@@H]2OC(C)=O)C1(C)C [TAXEZOPIDINE H] | 106 |
| C=C1[C@@H](OC(=O)C[C@H](c2ccccc2)N(C)C)CC[C@@]2(C)[C@@H](OC(C)=O)[C@H](OC(C)=O)C3=C(C)C(=O)C[C@@H]([C@@H](OC(C)=O)[C@H]12)C3(C)C [TAXINE II] | 95 |
| CC(=O)O[C@H]1C[C@H]2[C@@H](OC(C)=O)/C=C3\C[C@](C)(C(=O)[C@H](O)C(=C1C)C2(C)C)[C@@H](OC(C)=O)C[C@@H]3OC(=O)/C=C/c1ccccc1 [TAXUSPINE B] | 96 |
| C=C1[C@@H](OC(=O)/C=C/c2ccccc2)CC[C@@]2(C)[C@@H](OC(C)=O)[C@H](OC(C)=O)[C@@]34[C@H](C)C(=O)C[C@@H]([C@@H](OC(C)=O)[C@@]132)C4(C)C [TAXUSPINE C] | 104 |
| C=C1[C@@H](OC(=O)/C=C/c2ccccc2)C[C@H](OC(C)=O)[C@]2(C)[C@@H]1C[C@]1(C(C)(C)O)C[C@H](OC(C)=O)C(C)=C1[C@@H](OC(C)=O)[C@@H]2OC(C)=O [TAXUSPINE J] | 114 |
| CC(=O)OC/C1=C\[C@H](OC(C)=O)[C@@H]2C[C@H](OC(C)=O)C(C)=C([C@@H](O)/C(OC(C)=O)=C(\C)[C@@H](OC(C)=O)C[C@@H]1OC(=O)/C=C/c1ccccc1)C2(C)C [TAXUSPINE X] | 105 |
